These results are taken from PMC7535918, “Uncovering a novel molecular mechanism for scavenging sialic acids in bacteria” (The Journal of Biological Chemistry, 2020).

Experiment [1] has as its target T1, RgNanOx (Mediterraneibacter gnavus, UniProt A7B558).
T1 construct: gene RUMGNA_02695; Gfo/Idh/MocA-class Rossmann fold; dimer in the asymmetric unit
As to the kind of experiment: X-ray crystal structure of the complex ([…] and […] A). It counts as binding. The settings on record: NAD+ bound at Rossmann fold; citric acid from crystallization buffer beside nicotinamide; sodium citrate pH […], PEG […].

In experiment [2] the target is T1, RgNanOx. As to the kind of experiment: differential scanning fluorimetry. Format: binding. To be noted: […] NADH, […] protein, […] sodium phosphate pH […].

As for `NC(=O)c1ccc[n+]([C@@H]2O[C@H](COP(=O)(O)OP(=O)(O)OC[C@H]3O[C@@H](n4cnc5c(N)ncnc54)[C@H](O)[C@@H]3O)[C@@H](O)[C@H]2O)c1` [NAD^+], in experiment [1], the “X-ray crystal structure of the complex (2.58 and 1.74 A)” value is “crystal structure of the recombinant RgNanOx in complex with the NAD^+ cofactor was solved”. Turning to `NC(=O)C1=CN([C@@H]2O[C@H](COP(=O)(O)OP(=O)(O)OC[C@H]3O[C@@H](n4cnc5c(N)ncnc54)[C@H](O)[C@@H]3O)[C@@H](O)[C@H]2O)C=CC1` [NADH], the ΔTm result in experiment [2] is “DSF analysis of RgNanOx and EcNanOx, the ΔTm is shown”.
